Assay: mn = molality of the nth substance listed, in mol/kg
Conditions: 100 kPa, Liquid, Alternating current cell with electrodes

CCCCCCCCCC(=O)[O-].[Cs+] [cesium decanoate] + O
electrical conductivity [S/m]
Conditions | 278.15 K | 288.15 K | 298.15 K | 308.15 K | 318.15 K | 328.15 K
m1 = 0.00805 | 0.0479 | 0.0614 | 0.0757 | 0.091 | 0.107 | 0.123
m1 = 0.01759 | 0.101 | 0.13 | 0.161 | 0.193 | 0.227 | 0.261
m1 = 0.0274 | 0.151 | 0.197 | 0.241 | 0.29 | 0.342 | 0.396
m1 = 0.03769 | 0.207 | 0.261 | 0.323 | 0.39 | 0.46 | 0.533
m1 = 0.04818 | 0.261 | 0.327 | 0.404 | 0.487 | 0.575 | 0.667
m1 = 0.06109 | 0.316 | 0.405 | 0.502 | 0.604 | 0.713 | 0.824
m1 = 0.0725 | 0.3714 | 0.476 | 0.588 | 0.707 | 0.829 | 0.958
m1 = 0.08819 | 0.4405 | 0.564 | 0.696 | 0.835 | 0.988 | 1.147
m1 = 0.1027 | 0.5001 | 0.639 | 0.7914 | 0.954 | 1.121 | 1.3
m1 = 0.1172 | 0.554 | 0.715 | 0.883 | 1.06 | 1.24 | 1.44
m1 = 0.1325 | 0.6113 | 0.79 | 0.965 | 1.16 | 1.36 | 1.58
m1 = 0.153 | 0.697 | 0.875 | 1.07 | 1.28 | 1.514 | 1.76
m1 = 0.1705 | 0.7509 | 0.944 | 1.16 | 1.39 | 1.642 | 1.914
m1 = 0.1873 | 0.799 | 1.009 | 1.241 | 1.49 | 1.77 | 2.06
m1 = 0.2051 | 0.8512 | 1.08 | 1.33 | 1.604 | 1.9 | 2.211
m1 = 0.2256 | 0.914 | 1.16 | 1.438 | 1.735 | 2.05 | 2.39
m1 = 0.2463 | 0.976 | 1.25 | 1.542 | 1.86 | 2.207 | 2.57

CCCCCCCCCC(=O)[O-].[K+] [potassium decanoate] + O
Conditions | electrical conductivity [S/m]
288.15 K, m1 = 0.00932 | 0.0666
288.15 K, m1 = 0.01855 | 0.13
288.15 K, m1 = 0.02771 | 0.19
288.15 K, m1 = 0.03678 | 0.247
288.15 K, m1 = 0.04578 | 0.303
288.15 K, m1 = 0.0547 | 0.358
288.15 K, m1 = 0.06355 | 0.411
288.15 K, m1 = 0.07232 | 0.462
288.15 K, m1 = 0.08102 | 0.511
288.15 K, m1 = 0.08964 | 0.5603
288.15 K, m1 = 0.09819 | 0.608
288.15 K, m1 = 0.1067 | 0.654
288.15 K, m1 = 0.1151 | 0.698
288.15 K, m1 = 0.1234 | 0.738
288.15 K, m1 = 0.1317 | 0.771
288.15 K, m1 = 0.1399 | 0.8021
288.15 K, m1 = 0.148 | 0.8314
288.15 K, m1 = 0.1561 | 0.86
288.15 K, m1 = 0.1641 | 0.888
288.15 K, m1 = 0.1721 | 0.915
288.15 K, m1 = 0.1799 | 0.943
288.15 K, m1 = 0.1878 | 0.9704
298.15 K, m1 = 0.00998 | 0.0875
298.15 K, m1 = 0.01987 | 0.172
298.15 K, m1 = 0.02967 | 0.251
298.15 K, m1 = 0.03939 | 0.328
298.15 K, m1 = 0.04902 | 0.402
298.15 K, m1 = 0.05856 | 0.474
298.15 K, m1 = 0.06803 | 0.545
298.15 K, m1 = 0.07741 | 0.613
298.15 K, m1 = 0.08671 | 0.679
298.15 K, m1 = 0.09593 | 0.743
298.15 K, m1 = 0.1051 | 0.802
298.15 K, m1 = 0.1141 | 0.858
298.15 K, m1 = 0.1231 | 0.905
298.15 K, m1 = 0.1321 | 0.949
298.15 K, m1 = 0.1409 | 0.99
298.15 K, m1 = 0.1497 | 1.03
298.15 K, m1 = 0.1583 | 1.07
298.15 K, m1 = 0.167 | 1.108
298.15 K, m1 = 0.1755 | 1.147
298.15 K, m1 = 0.184 | 1.19
298.15 K, m1 = 0.1924 | 1.224
298.15 K, m1 = 0.2008 | 1.26
298.15 K, m1 = 0.209 | 1.301
308.15 K, m1 = 0.00952 | 0.101
308.15 K, m1 = 0.01895 | 0.198
308.15 K, m1 = 0.0283 | 0.29
308.15 K, m1 = 0.03758 | 0.379
308.15 K, m1 = 0.04677 | 0.465
308.15 K, m1 = 0.05588 | 0.549
308.15 K, m1 = 0.06492 | 0.631
308.15 K, m1 = 0.07388 | 0.71
308.15 K, m1 = 0.08277 | 0.785
308.15 K, m1 = 0.09158 | 0.8601
308.15 K, m1 = 0.1003 | 0.931
308.15 K, m1 = 0.109 | 0.996
308.15 K, m1 = 0.1176 | 1.05
308.15 K, m1 = 0.1261 | 1.104
308.15 K, m1 = 0.1346 | 1.15
308.15 K, m1 = 0.1429 | 1.201
308.15 K, m1 = 0.1512 | 1.25
308.15 K, m1 = 0.1595 | 1.29
308.15 K, m1 = 0.1677 | 1.342
308.15 K, m1 = 0.1758 | 1.39
308.15 K, m1 = 0.1838 | 1.434
308.15 K, m1 = 0.1918 | 1.48
308.15 K, m1 = 0.1997 | 1.525
318.15 K, m1 = 0.0099 | 0.125
318.15 K, m1 = 0.01971 | 0.243
318.15 K, m1 = 0.02944 | 0.356
318.15 K, m1 = 0.03908 | 0.465
318.15 K, m1 = 0.04864 | 0.571
318.15 K, m1 = 0.05811 | 0.673
318.15 K, m1 = 0.0675 | 0.771
318.15 K, m1 = 0.07682 | 0.867
318.15 K, m1 = 0.08605 | 0.962
318.15 K, m1 = 0.0952 | 1.05
318.15 K, m1 = 0.1043 | 1.135
318.15 K, m1 = 0.1133 | 1.21
318.15 K, m1 = 0.1222 | 1.28
318.15 K, m1 = 0.131 | 1.342
318.15 K, m1 = 0.1398 | 1.404
318.15 K, m1 = 0.1485 | 1.46
318.15 K, m1 = 0.1571 | 1.524
318.15 K, m1 = 0.1657 | 1.58
318.15 K, m1 = 0.1742 | 1.641
318.15 K, m1 = 0.1826 | 1.7
318.15 K, m1 = 0.1909 | 1.76
318.15 K, m1 = 0.1992 | 1.815
318.15 K, m1 = 0.2074 | 1.87
328.15 K, m1 = 0.00972 | 0.143
328.15 K, m1 = 0.01937 | 0.279
328.15 K, m1 = 0.02892 | 0.408
328.15 K, m1 = 0.0384 | 0.533
328.15 K, m1 = 0.0478 | 0.654
328.15 K, m1 = 0.05712 | 0.769
328.15 K, m1 = 0.06636 | 0.883
328.15 K, m1 = 0.07552 | 0.994
328.15 K, m1 = 0.08461 | 1.103
328.15 K, m1 = 0.09362 | 1.207
328.15 K, m1 = 0.1026 | 1.305
328.15 K, m1 = 0.1114 | 1.4
328.15 K, m1 = 0.1202 | 1.48
328.15 K, m1 = 0.1289 | 1.55
328.15 K, m1 = 0.1376 | 1.627
328.15 K, m1 = 0.1462 | 1.7
328.15 K, m1 = 0.1547 | 1.77
328.15 K, m1 = 0.1631 | 1.836
328.15 K, m1 = 0.1715 | 1.904
328.15 K, m1 = 0.1798 | 1.97
328.15 K, m1 = 0.188 | 2.038
328.15 K, m1 = 0.1962 | 2.106
328.15 K, m1 = 0.2043 | 2.17
